# Values of other authors, collected in patent US20130109633A1, “CB-183,315 Compositions and Related Methods” (Cubist Pharmaceuticals, Inc., priority 2011, published 2013).
# System: a broad spectrum of bacteria, including drug-resistant bacteria and C. difficile
substance,measurement,value
"CB-183,315",antibacterial activity,antibacterial activity against a broad spectrum of bacteria
same,bacteriacidal activity,exhibits bacteriacidal activity
